“Also recorded” adds a separate entry of the source. Where two headings read alike, the source gives them in different places.
How the values were obtained:
[1] = MM xenograft mouse model, body weight / systemic toxicity; type: in vivo, C.B.-17 SCID mice; conditions: 1 mg/kg bortezomib equivalent, intravenous, days 1, 4, 8, and 11
Protocol: MM Xenograft Mouse Model. C.B.-17 SCID mice (Harlan Laboratories) were irradiated with 150 rad and were inoculated subcutaneously with 5×10^6 NCI-H929 cells. When tumors were palpable, mice were distributed into 6 groups of 5 mice and were treated intravenously with the various bortezomib pro-drugs, free bortezomib, or vehicle (PBS), on days 1, 4, 8, and 11. Animals were monitored for body weight and tumor volume.
Liposomal Pro-Drugs Inhibit Tumor Growth with Reduced Systemic Toxicity In Vivo. […] Thus, in vivo studies were performed on C.B-17 SCID mice injected with NCI-H929 tumors to evaluate the efficacy of the liposomal pro-drugs in inhibiting tumor growth and limiting toxicity. The mice were divided into six groups (control, free bortezomib, and one group for each pro-drug) of five mice. The mice were monitored for body weight and tumor volume every other day. When the tumors became palpable, intravenous injections of the respective bortezomib formulations at a dose of 1 mg/kg bortezomib equivalent nanoparticles were performed on days 1, 4, 8, and 11.

[2] = tested on: NCI-H929 myeloma cells (VLA-4 expressing); test: Cell-based peptide binding assay (NCI-H929); conditions: fluorescein labeled peptide, flow cytometry, read-out: apparent Kd
Protocol: (§1) HER2 or VLA-4 Expression Analysis and Cell-Based Peptide Binding Assays. For antibody binding assays, cells were incubated with the primary antibody in binding buffer (1.5% BSA in PBS pH 7.4) on ice for 1 hour and were washed twice. Fluorescein conjugated secondary antibody was added for 1 hour on ice, samples were washed, and analyzed on Guava easyCyte 8HT flow cytometer (Millipore). For cell-based peptide binding assays, cells were incubated with increasing concentrations of fluorescein-conjugated peptides for 2 hours on ice. Samples were washed twice and analyzed on Guava easyCyte 8HT flow cytometer.
Receptor Expression Analysis and Cell-Based Peptide Binding Assays. For VLA-4 expression assays, cells were incubated with anti-CD49d (phycoerythrin) or anti-CD29 (fluorescein) antibodies (BD Biosciences, San Jose, Calif.) in binding buffer (1.5% BSA in PBS pH 7.4) on ice for 1 hour and were washed twice. For HER2 expression assays, cells were incubated with primary antibody in binding buffer on ice for 1 hour and washed twice. Fluorescein conjugated secondary antibody was added for 1 hour on ice, samples were washed, and analyzed on Guava easyCyte 8HT flow cytometer (Millipore). Isotype matched antibodies were used as negative controls. […] Samples were washed twice and analyzed on Guava easyCyte 8HT flow cytometer.

[3] = tested on: VLA-4-overexpressing multiple myeloma cells; test: In vitro nanoparticle uptake, result stated jointly for the myeloma lines; type: cell-based; conditions: competition experiment, NCI-H929 and MM.1S
Protocol: In Vitro Liposome Uptake and Binding Assays. 1×10^5 cells/well were plated 24 hours prior to each experiment in a 24 well dish. Liposomes were added at 100 μM phospholipid concentration and incubated for 3 hours at 37° C. 0.2% fluorescein PE was added as a fluorescent marker to each liposomal formulation. For adherent cells, after incubation, cells were washed 3 times with PBS, trypsinized, and analyzed via flow cytometry. For suspension cells, after incubation, cells were washed 3 times with PBS and analyzed via flow cytometry. For binding assays, adherent cells were scraped from the surface of a confluent dish, placed in growth media, and incubated on ice for 30 minutes. Liposomes were added at variable concentrations and incubated for 2 hours on ice. After incubation, cells were washed 3 times with PBS and analyzed via flow cytometry.
In Vitro Nanoparticle Uptake Assays. 1×10^5 cells/well were plated 24 hours prior to each experiment in a 24 well dish. Nanoparticles were added at 100 μM phospholipid concentration and incubated for 3 hours at 37° C. […] For suspension cells, after incubation, cells were washed 3 times with PBS and analyzed via flow cytometry. For adherent cells, after incubation, cells were washed 3 times with PBS, trypsinized, and analyzed via flow cytometry.

[4] = tested on: MM.1S myeloma cells (VLA-4 expressing); test: Cell-based peptide binding assay (MM.1S); conditions: fluorescein labeled peptide, MM.1S cells, flow cytometry; read-out: apparent Kd
Protocol: Receptor Expression Analysis and Cell-Based Peptide Binding Assays. For VLA-4 expression assays, cells were incubated with anti-CD49d (phycoerythrin) or anti-CD29 (fluorescein) antibodies (BD Biosciences, San Jose, Calif.) in binding buffer (1.5% BSA in PBS pH 7.4) on ice for 1 hour and were washed twice. For HER2 expression assays, cells were incubated with primary antibody in binding buffer on ice for 1 hour and washed twice. Fluorescein conjugated secondary antibody was added for 1 hour on ice, samples were washed, and analyzed on Guava easyCyte 8HT flow cytometer (Millipore). Isotype matched antibodies were used as negative controls. For cell-based peptide binding assays, cells were incubated with increasing concentrations of fluorescein-conjugated peptides for 2 hours on ice. Samples were washed twice and analyzed on Guava easyCyte 8HT flow cytometer.

[5] = target: extracellular HER2 domain (Homo sapiens, UniProt P04626); conditions: reported by Berezov et al., recombinant soluble HER2 protein; cited from earlier work
[6] = tested on: MCF7 cells (very low HER2 expression); test: Cellular binding assay, flow cytometry (MCF7); conditions: fluorescein labeled peptide, negative control cell line
Protocol: as §1

CC(C)C[C@H](NC(=O)[C@H](Cc1ccccc1)NC(=O)c1cnccn1)B(O)O [free bortezomib, bortezomib]
systemic toxicity [1]: moribundity on day 7; also recorded: moribundity by day 7

YCDPC [VLA4-pep]
Kd ([2]; listed as VLA4pep): 250 nM
Kd [2]: ~250 nM
inhibition of uptake of VLA-4-targeted liposomes by excess free peptide ([3]; LPVLA4pep(K3)): efficient inhibition of uptake
inhibition of uptake of VLA-4-targeted micelles by free peptide ([3]; micelles with VLA4pep(K3)): significant inhibition
Kd [4]: 250 nM

YCDGFYACYMDV [HER2-pep]
Kd [5]: 150 nM
binding to MCF7 cells [6]: minimal binding

— patent publication US10342846B2, “Nanoparticle drug delivery systems” (University of Notre Dame du Lac, priority 2013, dated 2019)
